# Test system: Math1-estrogen receptor (ER) fusion protein
# Test: Tamoxifen-inducible Math1-estrogen receptor (ER) fusion construct in transfected cells
# Assay type: cell-based
# Settings: addition of tamoxifen to the transfected cells
# Source text: This Example describes a system in which administration of tamoxifen, a […], induces expression of Math1. A Math1-estrogen receptor (ER) fusion protein, where the ER has been mutated so that it selectively binds to tamoxifen rather than estrogen, is constitutively expressed. In the absence of tamoxifen, the Math1-ER construct remains quiescent within the cytosol where it is inactivated by heat shock proteins. […] The sequence of Math1 is given above.
compound,measurement,value
CC/C(=C(\c1ccccc1)c1ccc(OCCN(C)C)cc1)c1ccccc1 [tamoxifen],localization of the Math1-ER construct to the nucleus,dose-dependent localization of the Math1-ER construct to the nucleus
